Experimental data from US20070218105A1, “Topical Treatment with NGF and DHA in Damaged Corneas” (priority 2004, published 2007).
Values joined by “and” are separate entries in the source; they are usually repeats but may differ in a detail not shown here. Identical values can stand only once.

Columns and labels:
Assay type in all cases: in vivo, New Zealand albino rabbits
[1] = test system: sub-basal and epithelial nerve bundles; test: Class III β-tubulin staining of sub-basal and epithelial nerve bundle area after PRK; settings: 8 weeks after PRK
Procedure: (§1) Twenty-one New Zealand albino rabbits were divided in 4 groups. The three experimental groups consisted of 6 rabbits each. The control group had only 3 rabbits. The rabbits within each of the four groups were randomized to receive twice-weekly topical treatments through 72-hour collagen shields (Oasis Medical Inc.; Glendora, Calif.) for a total of eight weeks. The four treatments were as follows: (1) 0.1 μg NGF (25 μl) plus 100 μl phosphate buffered saline (PBS); (2) 100 μg DHA (100 μl) plus 25 μl of PBS; (3) 0.1 μg NGF (25 μl) plus 100 μg DHA (100 μl); and (4) 125 μl of PBS with albumin (control). […]
(§2) Statistical analyses were performed using the Statistical Analysis System (SAS) software version 9.0 (SAS Institute, Cary, N.C.). The tear secretion tests (Schirmer, tear break-up time and rose bengal staining) and density of nerve areas were analyzed using a repeated measures design in the analysis of variance (ANOVA). The differences in the tear secretion tests between the four treatment groups were analyzed at each time point. The effect of the various treatments on tubulin III-, CGRP- and SP-positive epithelial and sub-basal nerve areas was evaluated with a multivariate test. […]
(§3) Rabbits were humanely euthanized at 8 weeks post-PRK surgery using an intravenous overdose of pentobarbital. […] Each section was evaluated with hematoxylin and eosin (H&E) stain and by immuno-histochemical analysis. […]

Rabbit Corneas [2] = test: Tear break-up time after PRK; settings: for Tear Break-Up Time: mean ± Standard Error
Procedure: (§4) Twenty-one New Zealand albino rabbits weighing 1.5 to 2.0 kg were obtained from a commercial supplier and were treated in accordance with the guidelines of the Association for Research in Vision and Ophthalmology. Each rabbit received intramuscular xylazine (10 mg/kg) and ketamine hydrochloride (50 mg/kg) anesthesia. Tetracaine eye drops were used as topical anesthesia. Tear secretion tests (e.g., tear break-up time, Schirmer's test, and rose bengal staining) were performed preoperatively under general anesthesia. Each rabbit received a unilateral PRK laser treatment. The corneal epithelium was removed with an epithelial scrubber (Katena Inc, Denville, N.J.). An excimer laser ablation to correct −5 diopters of myopia using a 6.5 mm optical zone (Lasersight Technologies, Inc., Winter Park, Fla.) was performed. The eye was washed with balanced salt solution. Lubricating eye drops and an ophthalmic solution of 0.3% ofloxacin eye drops (Allergan Inc, Irvine, Calif.) were used postoperatively. Unless otherwise indicated, all chemicals were purchased from Sigmna Chemical Co. (St. Louis, Mo.).
Twenty-one New Zealand albino rabbits were divided in 4 groups. The three experimental groups consisted of 6 rabbits each. The control group had only 3 rabbits. The rabbits within each of the four groups were randomized to receive twice-weekly topical treatments through 72-hour collagen shields (Oasis Medical Inc.; Glendora, Calif.) for a total of eight weeks. The four treatments were as follows: (1) 0.1 μg NGF (25 μl) plus 100 μl phosphate buffered saline (PBS); (2) 100 μg DHA (100 μl) plus 25 μl of PBS; (3) 0.1 μg NGF (25 μl) plus 100 μg DHA (100 μl); and (4) 125 μl of PBS with albumin (control). In all animals, a tarsorrhaphy was performed on the treated eyes, and the eyes were opened only twice a week to introduce a new collagen shield.
Statistical analyses were performed using the Statistical Analysis System (SAS) software version 9.0 (SAS Institute, Cary, N.C.). The tear secretion tests (Schirmer, tear break-up time and rose bengal staining) and density of nerve areas were analyzed using a repeated measures design in the analysis of variance (ANOVA). The differences in the tear secretion tests between the four treatment groups were analyzed at each time point. The effect of the various treatments on tubulin III-, CGRP- and SP-positive epithelial and sub-basal nerve areas was evaluated with a multivariate test. Comparisons among the four treatments groups were made using adjusted least square means with alpha levels corrected by a simulation method.
Tear secretion tests (tear break-up time, Schirmer's test and rose bengal staining) were performed every 15 days over the 8-week period following PRK. All the tests were performed with general anesthesia. […]

Rabbit Corneas [3] = test: Schirmer's test (tear secretion) after PRK; settings: mean ± Standard Error
Procedure: as §4
Twenty-one New Zealand albino rabbits were divided in 4 groups. The three experimental groups consisted of 6 rabbits each. The control group had only 3 rabbits. The rabbits within each of the four groups were randomized to receive twice-weekly topical treatments through 72-hour collagen shields (Oasis Medical Inc.; Glendora, Calif.) for a total of eight weeks. […]
as §2

Rabbit Corneas [4] = test: Rose bengal staining after PRK; settings: first postoperative month (30 days after PRK)
Procedure: as §4, with “The eye was washed with balanced salt solution. Lubricating eye drops and an ophthalmic solution of 0.3% ofloxacin eye drops (Allergan Inc, Irvine, Calif.) were used postoperatively. Unless otherwise indicated, all chemicals were purchased from Sigmna Chemical Co. (St. Louis, Mo.).” left out
as §2

corneal epithelium = test: Ki-67 immunostaining of proliferating cells in corneal epithelium after PRK; settings: 8 weeks after PRK
Procedure: as §1, §3
Photographs of the tissue sections were acquired using MetaVue version 5.0r3 (Universal Imaging Corp.; Downingtown, Pa.) and saved as a TIFF file. (Data not shown) The tubulin III-, CGRP- and SP-positive tissue nerve areas and the percentage of Ki-67 cells were calculated with respect to the total area using the image analysis program Image Pro Plus 4.5 (Media Cybernetics Inc., Silver Spring, Md.). Sub-basal and epithelial nerve areas were measured in all groups eight weeks after PRK using anti-class III β tubulin, CGRP and SP monoclonal antibodies. […]

CC/C=C\C/C=C\C/C=C\C/C=C\C/C=C\C/C=C\CCC(=O)O [DHA, docosahexaenoic acid]
average ratio of sub-basal tubulin-positive nerve bundle area to total area ([1]; FIG. 2A): ~1.2
ratio of the tubulin positive nerve bundle area to the total epithelial area ([1]; epithelial layer, FIG. 2B): no significant effect
tear break-up time measurement (Rabbit Corneas [2]; 1 week postoperative): 14.5 s
Tear Break-Up Time (Rabbit Corneas [2]; 15 Days after PRK): 14.5 ± 6.2 s
Tear Break-Up Time (Rabbit Corneas [2]; 30 Days (1 month) after PRK): 14.0 s and 14.0 ± 4.8 s
Tear Break-Up Time (Rabbit Corneas [2]; 45 Days after PRK): 14.0 ± 4.0 s
Schirmer's Test (Rabbit Corneas [3]; 15 Days after PRK): 10 mm and 10.0 ± 3.7 mm
Schirmer's Test (Rabbit Corneas [3]; 30 Days (1 month) after PRK): 11.5 mm and 11.5 ± 3.4 mm
Schirmer's Test (Rabbit Corneas [3]; 45 Days after PRK): 12.5 ± 2.3 mm
eyes with positive rose bengal staining (Rabbit Corneas [4]): 33%
percentage of Ki-67 positive epithelial cells (corneal epithelium): 6%
